Source: US11492335B2, “Aryl or heteroaryl triazolone derivatives or salts thereof, or pharmaceutical compositions comprising the same” (YUHAN CORPORATION, priority 2018, dated 2022)
Structures can show the parent of a compound that is named as a salt.

Key:
Assay type in all cases: biochemical
[1] = molecular target: T1, recombinant human MAO-B (monoamine oxidase-B) (Homo sapiens, UniProt P27338); test: Activity on recombinant human MAO-B, Amplex Red method, 1 mM benzylamine substrate; conditions: 1 mM benzylamine, read-out: Inhibitory Activity (IC50, nM) MAO-B
T1 construct: purchased Sigma-Aldrich
T1 sequence (P27338 1-520): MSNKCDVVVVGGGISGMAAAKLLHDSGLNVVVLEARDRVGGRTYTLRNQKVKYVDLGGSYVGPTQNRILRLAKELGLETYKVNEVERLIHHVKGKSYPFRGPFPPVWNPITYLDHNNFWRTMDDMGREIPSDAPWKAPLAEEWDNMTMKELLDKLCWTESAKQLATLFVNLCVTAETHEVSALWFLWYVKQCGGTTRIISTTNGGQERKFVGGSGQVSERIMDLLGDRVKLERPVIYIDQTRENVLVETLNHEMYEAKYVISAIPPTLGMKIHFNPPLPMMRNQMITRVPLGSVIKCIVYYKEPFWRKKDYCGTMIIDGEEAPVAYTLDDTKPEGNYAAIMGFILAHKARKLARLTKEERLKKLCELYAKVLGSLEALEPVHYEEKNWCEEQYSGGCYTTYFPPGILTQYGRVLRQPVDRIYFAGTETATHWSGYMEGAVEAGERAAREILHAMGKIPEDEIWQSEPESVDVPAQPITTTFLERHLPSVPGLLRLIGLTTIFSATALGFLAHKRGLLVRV
Summary of the method: (§1)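 Enzyme in pH 7.4 phosphate buffer; 30 min, 37° C with compound (DMSO <1%); start with 200 uM Amplex Red + 1 U/mL HRP + tyramine 0.5 mM (MAO-A) or benzylamine 1 mM (MAO-B); kinetic read ex 544/em 590, 1-2 h; % rate decrease vs DMSO control → IC50, 4-parameter fit.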

recombinant human VAP-1 = molecular target: T2, recombinant human VAP-1 (Homo sapiens, UniProt Q16853); test: Activity on recombinant human VAP-1, Amplex Red HRP-coupled hydrogen peroxide assay, benzylamine substrate; conditions: recombinant human VAP-1, benzylamine substrate, 30 min preincubation at 37° C.; read-out: Inhibitory Activity (IC50, nM) human VAP-1
T2 construct: purchased R&D systems
T2 sequence (Q16853 1-763): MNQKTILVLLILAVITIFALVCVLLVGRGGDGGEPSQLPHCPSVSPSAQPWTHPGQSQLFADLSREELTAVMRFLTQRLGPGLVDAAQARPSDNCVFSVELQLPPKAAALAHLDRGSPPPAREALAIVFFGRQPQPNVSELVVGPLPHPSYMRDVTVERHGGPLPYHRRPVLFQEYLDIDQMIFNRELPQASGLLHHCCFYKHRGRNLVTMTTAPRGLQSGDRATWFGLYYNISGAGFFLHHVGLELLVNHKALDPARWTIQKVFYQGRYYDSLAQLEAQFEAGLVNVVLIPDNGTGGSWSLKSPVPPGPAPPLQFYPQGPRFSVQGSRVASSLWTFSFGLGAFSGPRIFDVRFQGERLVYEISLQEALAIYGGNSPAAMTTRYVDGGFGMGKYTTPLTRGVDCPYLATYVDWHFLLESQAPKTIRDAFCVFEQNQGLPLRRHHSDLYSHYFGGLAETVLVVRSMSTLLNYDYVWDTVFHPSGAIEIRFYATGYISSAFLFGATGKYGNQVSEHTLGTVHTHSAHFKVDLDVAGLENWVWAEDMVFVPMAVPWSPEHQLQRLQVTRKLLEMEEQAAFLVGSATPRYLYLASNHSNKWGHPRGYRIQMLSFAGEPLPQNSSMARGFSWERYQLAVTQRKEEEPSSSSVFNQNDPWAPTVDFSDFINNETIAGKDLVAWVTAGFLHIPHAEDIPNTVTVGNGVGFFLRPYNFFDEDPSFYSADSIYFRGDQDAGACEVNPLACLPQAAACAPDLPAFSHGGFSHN
Summary of the method: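 Enzyme in 50 mM sodium phosphate (pH 7.4) is exposed to test compound for 30 min at 37 °C. Benzylamine (1 mM) with HRP and Amplex Red then starts the reaction, and the fluorescence rate, relative to a DMSO-only control, gives IC50.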

[2] = molecular target: T3, recombinant human DAO (diamine oxidase) (Homo sapiens, UniProt P19801); test: Activity on recombinant human DAO, Amplex Red method, 1 mM putrescine substrate; conditions: recombinant human DAO, 1 mM putrescine; * = between 10 and 100 nM, ** = between 300 and 1000 nM; read-out: Inhibitory Activity (IC50, nM) DAO
T3 construct: purchased R&D systems
T3 sequence (P19801 20-751): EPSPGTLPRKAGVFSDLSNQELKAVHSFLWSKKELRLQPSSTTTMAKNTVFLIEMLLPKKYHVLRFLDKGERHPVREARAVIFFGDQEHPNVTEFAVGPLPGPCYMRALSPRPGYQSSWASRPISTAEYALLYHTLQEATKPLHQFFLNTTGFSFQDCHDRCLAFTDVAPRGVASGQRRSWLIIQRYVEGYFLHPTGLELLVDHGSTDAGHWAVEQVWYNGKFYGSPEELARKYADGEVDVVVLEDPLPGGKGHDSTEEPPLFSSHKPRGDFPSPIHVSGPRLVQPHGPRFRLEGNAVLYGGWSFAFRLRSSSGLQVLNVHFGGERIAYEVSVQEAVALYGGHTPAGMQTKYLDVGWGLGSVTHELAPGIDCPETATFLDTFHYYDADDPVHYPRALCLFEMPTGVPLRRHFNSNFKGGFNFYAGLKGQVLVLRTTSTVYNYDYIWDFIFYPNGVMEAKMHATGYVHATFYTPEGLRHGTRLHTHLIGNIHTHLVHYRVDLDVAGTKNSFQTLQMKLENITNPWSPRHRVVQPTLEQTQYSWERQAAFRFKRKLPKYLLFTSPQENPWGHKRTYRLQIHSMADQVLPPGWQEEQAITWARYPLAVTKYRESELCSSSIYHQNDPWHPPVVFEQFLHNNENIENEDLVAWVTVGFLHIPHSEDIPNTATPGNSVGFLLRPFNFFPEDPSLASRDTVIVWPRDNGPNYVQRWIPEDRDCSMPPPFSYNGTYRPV
Summary of the method: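 Inhibition of recombinant human DAO (diamine oxidase, R&D systems) was assessed with the Amplex Red Hydrogen Peroxide Assay Kit. Hydrogen peroxide produced from 1 mM putrescine was detected through an HRP-coupled reaction that converts Amplex Red into fluorescent resorufin, read at 544 nm excitation and 590 nm emission. IC50 values came from four-parameter logistic fits in GraphPad Prism.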

[3] = molecular target: T4, recombinant human MAO-A (monoamine oxidase-A) (Homo sapiens, UniProt P21397); test: Activity on recombinant human MAO-A, Amplex Red method, 0.5 mM tyramine substrate; conditions: 0.5 mM tyramine, read-out: Inhibitory Activity (IC50, nM) MAO-A
T4 construct: purchased Sigma-Aldrich
T4 sequence (P21397 1-527): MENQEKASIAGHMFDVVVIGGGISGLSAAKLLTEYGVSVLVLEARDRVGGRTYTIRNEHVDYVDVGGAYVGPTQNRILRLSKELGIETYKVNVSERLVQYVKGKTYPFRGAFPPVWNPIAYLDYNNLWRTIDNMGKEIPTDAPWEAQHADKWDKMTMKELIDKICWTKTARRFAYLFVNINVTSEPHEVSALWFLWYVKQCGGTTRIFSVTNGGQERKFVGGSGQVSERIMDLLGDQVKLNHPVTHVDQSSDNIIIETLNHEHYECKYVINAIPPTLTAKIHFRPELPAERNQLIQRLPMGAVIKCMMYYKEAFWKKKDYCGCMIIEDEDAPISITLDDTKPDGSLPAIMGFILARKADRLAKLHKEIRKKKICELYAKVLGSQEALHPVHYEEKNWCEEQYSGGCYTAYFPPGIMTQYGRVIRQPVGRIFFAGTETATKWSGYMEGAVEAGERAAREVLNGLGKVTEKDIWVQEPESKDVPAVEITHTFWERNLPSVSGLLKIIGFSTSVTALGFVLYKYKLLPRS
Summary of the method: as §1

| IC50 [1] [nM] | IC50 (recombinant human VAP-1) [nM] | IC50 [2] [nM] | IC50 [3] [nM] | SMILES |
| --- | --- | --- | --- | --- |
| 363 | 0.6 | 13 | 6100 | Cc1cc(-n2cnn(C/C(=C/F)CN)c2=O)ncc1Br [Example 34, 2-[(2E)-2-(aminomethyl)-3-fluoroprop-2-en-1-yl]-4-(5-bromo-4-methylpyridin-2-yl)-2,4-dihydro-3H-1,2,4-triazol-3-one hydrochloride] |
| 503 | 6.6 | 14 | 1500 | NC/C(=C/F)Cn1ncn(-c2ncc(Br)cc2F)c1=O [Example 35, 2-[(2Z)-2-(aminomethyl)-3-fluoroprop-2-en-1-yl]-4-(5-bromo-3-fluoropyridin-2-yl)-2,4-dihydro-3H-1,2,4-triazol-3-one hydrochloride] |
| 3350 | 1.2 | 23 | > 100000 | NC/C(=C\F)Cn1ncn(-c2ncc(Br)cc2F)c1=O [Example 36, 2-[(2E)-2-(aminomethyl)-3-fluoroprop-2-en-1-yl]-4-(5-bromo-3-fluoropyridin-2-yl)-2,4-dihydro-3H-1,2,4-triazol-3-one hydrochloride] |
| > 10000 | 1.8 | 16 | > 100000 | NC/C(=C\F)Cn1ncn(-c2cccc(Br)n2)c1=O [Example 37, 2-[(2E)-2-(aminomethyl)-3-fluoroprop-2-en-1-yl]-4-(6-bromopyridin-2-yl)-2,4-dihydro-3H-1,2,4-triazol-3-one] |
| 112 | 4.4 | < 100 | 19600 | NC/C(=C\F)Cn1ncn(-c2cnc(Br)cn2)c1=O [Example 38, 2-[(2E)-2-(aminomethyl)-3-fluoroprop-2-en-1-yl]-4-(5-bromopyrazin-2-yl)-2,4-dihydro-3H-1,2,4-triazol-3-one] |
| 2100 | 1.7 | 30 | 5700 | NC/C(=C/F)Cn1ncn(-c2nccs2)c1=O [Example 39, 2-[(2Z)-2-(aminomethyl)-3-fluoroprop-2-en-1-yl]-4-(1,3-thiazol-2-yl)-2,4-dihydro-3H-1,2,4-triazol-3-one hydrochloride] |
| 619 | 1.1 | 25 | 80 | NC/C(=C/F)Cn1ncn(-c2ncc(Br)s2)c1=O [Example 40, 2-[(2Z)-2-(aminomethyl)-3-fluoroprop-2-en-1-yl]-4-(5-bromo-1,3-thiazol-2-yl)-2,4-dihydro-3H-1,2,4-triazol-3-one hydrochloride] |
| 174 | 0.6 | 17 | 780 | NC/C(=C\F)Cn1ncn(-c2ncc(Br)s2)c1=O [Example 41, 2-[(2E)-2-(aminomethyl)-3-fluoroprop-2-en-1-yl]-4-(5-bromo-1,3-thiazol-2-yl)-2,4-dihydro-3H-1,2,4-triazol-3-one hydrochloride] |
| < 0.01 | 0.47 | 1 | 18400 | CC(=O)c1ccc(-c2ccc(-n3cnn(C/C(=C\F)CN)c3=O)cc2)s1 [Example 42, 4-[4-(5-acetylthiophen-2-yl)phenyl]-2-[(2Z)-2-(aminomethyl)-3-fluoroprop-2-en-1-yl]-2,4-dihydro-3H-1,2,4-triazol-3-one hydrochloride] |
| 196 | 0.62 | < 100 | > 100000 | NC/C(=C\F)Cn1ncn(-c2ccc(-c3ccc(-c4nnc[nH]4)cc3)cc2F)c1=O [Example 43, 2-[(2E)-2-(aminomethyl)-3-fluoroprop-2-en-1-yl]-4-[3-fluoro-4′-(4H-1,2,4-triazol-3-yl)biphenyl-4-yl]-2,4-dihydro-3H-1,2,4-triazol-3-one] |
| 65 | 1.3 | < 100 | 68300 | NC/C(=C\F)Cn1ncn(-c2ccc(-c3cccc(-c4nnc[nH]4)c3)cc2F)c1=O [Example 44, 2-[(2E)-2-(aminomethyl)-3-fluoroprop-2-en-1-yl]-4-[3-fluoro-3′-(4H-1,2,4-triazol-3-yl)biphenyl-4-yl]-2,4-dihydro-3H-1,2,4-triazol-3-one] |
| < 10 | 0.21 | 1.6 | 198 | NC/C(=C\F)Cn1ncn(-c2ccc(-c3ccc4c(c3)OCO4)cc2F)c1=O [Example 45, 2-[(2E)-2-(aminomethyl)-3-fluoroprop-2-en-1-yl]-4-[4-(1,3-benzodioxol-5-yl)-2-fluorophenyl]-2,4-dihydro-3H-1,2,4-triazol-3-one hydrochloride] |
| < 10 | 0.32 | 0.76 | 120 | NC/C(=C\F)Cn1ncn(-c2ccc(-c3ccc4nonc4c3)cc2F)c1=O [Example 46, 2-[(2E)-2-(aminomethyl)-3-fluoroprop-2-en-1-yl]-4-[4-(2,1,3-benzooxadiazol-5-yl)-2-fluorophenyl]-2,4-dihydro-3H-1,2,4-triazol-3-one hydrochloride] |
